In paper PMC7604503, “Cyclic peptides can engage a single binding pocket through highly divergent modes” (Proceedings of the National Academy of Sciences of the …, 2020):
Where a SMILES comes first, the peptide text is derived from it. Bridges are numbered along the chain shown (N, C = ends).

Key:
[1] = target: T1, BRD2-BD1 (Homo sapiens, UniProt P25440); assay: SPR binding of peptides to immobilised biotinylated BET bromodomain
T1 construct: human BRD2 (BD1: 65-194; BD2: 347-455); Avi tag (biotinylated); made in house; host or cells: E. coli BL21(DE3)
Method: (§1) We next assessed the ability of each of the three lead peptides to bind BRD3-BD1. […] To assess selectivity for other BET BDs, we used SPR to determine the binding affinity of each peptide toward the remaining BDs from BRD2, BRD3, and BRD4 (Fig. 1B). […]
(§2) Peptides were synthesised as C-terminal amides using standard fluorenylmethyloxycarbonyl (Fmoc)-strategy solid-phase chemistry using a Syro I automated synthesiser (Biotage) and NovaPEG Rink Amide resin (Novabiochem). Couplings were performed with HBTU/HOBt (1:1) and 6 equivalents of each amino acid. Double couplings were performed for arginine residues.
(§3) Following the final amino acid coupling reaction, the Fmoc group was removed and resin incubated with N-(chloroacetoxy)succinimide (0.2 M in DMF, 1 h, RT). Resin was washed with DMF (5 times) and DCM (5 times) and dried in vacuo.
(§4) Linear peptides were cleaved from the resin by incubation (3 h, RT) with a trifluoroacetic acid (TFA) cleavage cocktail (TFA/2,2’-(ethylenedioxy)diethanethiol/triisopropyl silane/H2O (92.5:2.5:2.5:2.5)) before filtration, concentration in vacuo and precipitation with ice-cold diethyl ether. Crude peptides were washed with diethyl ether (5 times), dried and resuspended in DMSO. The pH was raised to >8 using triethylamine to allow cyclisation. Following incubation (1 h, RT), peptides were re-acidified with TFA for purification.
(§5) Crude peptides were purified by reverse-phase high-performance liquid chromatography using a Chromolith Prep column (Merck) on a Prominence LC-20AP system (Shimadzu) (Solvent A: 0.1% TFA in H2O, Solvent B: 0.1% TFA in acetonitrile) to >95% purity as determined by mass spectrometry (Fig. S17). Purified peptides were reconstituted in DMSO and concentrations determined from their absorbance at 280 nm in 5% DMSO using predicted extinction coefficients.
(§6) Surface plasmon resonance (SPR)
(§7) Measurements were conducted on a T200 or S200 (GE Healthcare) and data analysed using the Biacore Insight Evaluation Software. Experiments were performed at 4 °C in single cycle kinetics mode. Biotinylated BET bromodomains were immobilised on a CAP chip (GE Healthcare) with a […]
(§8) pH 7.5 was used as the running buffer. […]

[2] = target: T2, BRD3-BD2 (Homo sapiens, UniProt Q15059); assay: as above
T2 construct: Avi tag (biotinylated); made in house; host or cells: E. coli BL21(DE3)
Method: as §1, §2, §3, §4, §5, §6, §7, §8

[3] = target: T3, BRD4-BD1 (Homo sapiens, UniProt O60885); assay: as above
T3 construct: BRD4 (BD1: 42-168; BD2: 348-464); Avi tag (biotinylated); made in house; host or cells: E. coli Rosetta2(DE3)
Method: as §1, §2, §3, §4, §5, §6, §7, §8

[4] = target: T4, BRD4-BD2 (Homo sapiens, UniProt O60885); assay: as above
T4 construct: BRD4 (BD1: 42-168; BD2: 348-464); Avi tag (biotinylated); made in house; host or cells: E. coli BL21(DE3)
Method: as §1, §2, §3, §4, §5, §6, §7, §8

[5] = target: T5, BAZ2A (Homo sapiens, UniProt Q9UIF9); assay: BROMOscan competition binding assay (BromoMAX, Eurofins DiscoverX); conditions: for Percent Control BAZ2A: compound concentration 1000 nM, lower percentage control = stronger affinity
T5 construct: purchased Eurofins DiscoverX (BROMOscan, BromoMAX)

[6] = target: T6, BAZ2B (Homo sapiens, UniProt Q9UIF8); assay: as above; conditions: for Percent Control BAZ2B: compound concentration 1000 nM, lower percentage control = stronger affinity
T6 construct: purchased Eurofins DiscoverX (BROMOscan, BromoMAX)

[7] = target: T7, BRD3(2) (Homo sapiens, UniProt Q15059); assay: as above; conditions: for Percent Control BRD3(2): compound concentration 1000 nM, lower percentage control = stronger affinity
T7 construct: BRD3(2); purchased Eurofins DiscoverX (BROMOscan, BromoMAX)

[8] = target: T8, BRD4(1) (Homo sapiens, UniProt O60885); assay: as above; conditions: for Percent Control BRD4(1): compound concentration 1000 nM, lower percentage control = stronger affinity
T8 construct: BRD4(1); purchased Eurofins DiscoverX (BROMOscan, BromoMAX)

[9] = target: T9, BRPF3 (Homo sapiens, UniProt Q9ULD4); assay: as above; conditions: for Percent Control BRPF3: compound concentration 1000 nM, lower percentage control = stronger affinity
T9 construct: purchased Eurofins DiscoverX (BROMOscan, BromoMAX)
T9 sequence (Q9ULD4 1-1205): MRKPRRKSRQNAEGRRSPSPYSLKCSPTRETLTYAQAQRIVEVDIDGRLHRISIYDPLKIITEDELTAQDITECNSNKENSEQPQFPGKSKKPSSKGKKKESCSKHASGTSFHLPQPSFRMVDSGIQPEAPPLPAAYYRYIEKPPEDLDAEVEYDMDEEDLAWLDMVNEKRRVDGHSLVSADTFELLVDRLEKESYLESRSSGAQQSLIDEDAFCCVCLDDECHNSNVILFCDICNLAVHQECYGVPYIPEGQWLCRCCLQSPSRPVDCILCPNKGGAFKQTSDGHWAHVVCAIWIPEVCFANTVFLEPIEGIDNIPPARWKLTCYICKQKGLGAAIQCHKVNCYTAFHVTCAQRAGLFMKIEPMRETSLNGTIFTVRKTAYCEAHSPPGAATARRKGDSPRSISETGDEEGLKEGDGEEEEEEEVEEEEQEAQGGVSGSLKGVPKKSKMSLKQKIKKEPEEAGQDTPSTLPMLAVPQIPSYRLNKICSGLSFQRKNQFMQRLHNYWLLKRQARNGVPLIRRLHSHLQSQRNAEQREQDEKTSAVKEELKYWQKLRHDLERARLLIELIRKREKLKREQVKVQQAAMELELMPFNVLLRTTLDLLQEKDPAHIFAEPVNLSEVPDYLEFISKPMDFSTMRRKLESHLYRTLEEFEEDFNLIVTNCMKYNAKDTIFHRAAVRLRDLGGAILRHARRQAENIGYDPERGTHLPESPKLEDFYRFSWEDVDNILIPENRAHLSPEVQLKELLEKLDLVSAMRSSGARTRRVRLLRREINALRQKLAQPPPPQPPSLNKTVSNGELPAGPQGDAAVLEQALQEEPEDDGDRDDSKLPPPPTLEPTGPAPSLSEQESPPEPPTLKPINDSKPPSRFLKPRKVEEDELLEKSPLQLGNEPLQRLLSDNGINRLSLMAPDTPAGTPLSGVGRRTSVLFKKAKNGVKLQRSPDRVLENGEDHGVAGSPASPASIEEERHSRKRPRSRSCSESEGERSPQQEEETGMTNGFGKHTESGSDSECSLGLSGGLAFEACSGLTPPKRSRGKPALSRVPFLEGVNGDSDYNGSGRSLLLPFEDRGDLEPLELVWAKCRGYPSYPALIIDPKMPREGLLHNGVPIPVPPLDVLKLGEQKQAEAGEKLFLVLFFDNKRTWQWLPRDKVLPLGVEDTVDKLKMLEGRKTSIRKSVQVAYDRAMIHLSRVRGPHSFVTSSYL

[10] = target: T10, PBRM1(2) (Homo sapiens, UniProt Q86U86); assay: as above; conditions: for Percent Control PBRM1(2): compound concentration 1000 nM, lower percentage control = stronger affinity
T10 construct: PBRM1(2); purchased Eurofins DiscoverX (BROMOscan, BromoMAX)

[11] = 4 C, geometric mean and SD of two to five measurements
[12] = gray boxed value: no reproducible signals observed at the concentrations used

T10 sequence (Q86U86 178-291 limits assumed): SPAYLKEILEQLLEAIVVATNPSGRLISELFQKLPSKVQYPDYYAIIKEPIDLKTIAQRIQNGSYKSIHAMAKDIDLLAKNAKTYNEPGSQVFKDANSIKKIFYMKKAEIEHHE
T1 sequence (P25440 65-194): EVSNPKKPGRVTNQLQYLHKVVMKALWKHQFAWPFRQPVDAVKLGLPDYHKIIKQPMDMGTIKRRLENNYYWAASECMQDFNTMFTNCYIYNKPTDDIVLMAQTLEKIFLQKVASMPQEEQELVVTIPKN
T2 sequence (Q15059 307-419): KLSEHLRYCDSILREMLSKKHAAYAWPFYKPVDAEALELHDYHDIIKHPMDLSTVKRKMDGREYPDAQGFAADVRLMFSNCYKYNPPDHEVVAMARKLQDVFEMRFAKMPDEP
T7 sequence (Q15059 306-416 limits assumed): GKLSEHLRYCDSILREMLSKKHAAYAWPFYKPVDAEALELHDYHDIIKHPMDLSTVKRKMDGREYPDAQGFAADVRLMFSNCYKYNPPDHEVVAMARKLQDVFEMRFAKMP
T5 sequence (Q9UIF9 whole entry): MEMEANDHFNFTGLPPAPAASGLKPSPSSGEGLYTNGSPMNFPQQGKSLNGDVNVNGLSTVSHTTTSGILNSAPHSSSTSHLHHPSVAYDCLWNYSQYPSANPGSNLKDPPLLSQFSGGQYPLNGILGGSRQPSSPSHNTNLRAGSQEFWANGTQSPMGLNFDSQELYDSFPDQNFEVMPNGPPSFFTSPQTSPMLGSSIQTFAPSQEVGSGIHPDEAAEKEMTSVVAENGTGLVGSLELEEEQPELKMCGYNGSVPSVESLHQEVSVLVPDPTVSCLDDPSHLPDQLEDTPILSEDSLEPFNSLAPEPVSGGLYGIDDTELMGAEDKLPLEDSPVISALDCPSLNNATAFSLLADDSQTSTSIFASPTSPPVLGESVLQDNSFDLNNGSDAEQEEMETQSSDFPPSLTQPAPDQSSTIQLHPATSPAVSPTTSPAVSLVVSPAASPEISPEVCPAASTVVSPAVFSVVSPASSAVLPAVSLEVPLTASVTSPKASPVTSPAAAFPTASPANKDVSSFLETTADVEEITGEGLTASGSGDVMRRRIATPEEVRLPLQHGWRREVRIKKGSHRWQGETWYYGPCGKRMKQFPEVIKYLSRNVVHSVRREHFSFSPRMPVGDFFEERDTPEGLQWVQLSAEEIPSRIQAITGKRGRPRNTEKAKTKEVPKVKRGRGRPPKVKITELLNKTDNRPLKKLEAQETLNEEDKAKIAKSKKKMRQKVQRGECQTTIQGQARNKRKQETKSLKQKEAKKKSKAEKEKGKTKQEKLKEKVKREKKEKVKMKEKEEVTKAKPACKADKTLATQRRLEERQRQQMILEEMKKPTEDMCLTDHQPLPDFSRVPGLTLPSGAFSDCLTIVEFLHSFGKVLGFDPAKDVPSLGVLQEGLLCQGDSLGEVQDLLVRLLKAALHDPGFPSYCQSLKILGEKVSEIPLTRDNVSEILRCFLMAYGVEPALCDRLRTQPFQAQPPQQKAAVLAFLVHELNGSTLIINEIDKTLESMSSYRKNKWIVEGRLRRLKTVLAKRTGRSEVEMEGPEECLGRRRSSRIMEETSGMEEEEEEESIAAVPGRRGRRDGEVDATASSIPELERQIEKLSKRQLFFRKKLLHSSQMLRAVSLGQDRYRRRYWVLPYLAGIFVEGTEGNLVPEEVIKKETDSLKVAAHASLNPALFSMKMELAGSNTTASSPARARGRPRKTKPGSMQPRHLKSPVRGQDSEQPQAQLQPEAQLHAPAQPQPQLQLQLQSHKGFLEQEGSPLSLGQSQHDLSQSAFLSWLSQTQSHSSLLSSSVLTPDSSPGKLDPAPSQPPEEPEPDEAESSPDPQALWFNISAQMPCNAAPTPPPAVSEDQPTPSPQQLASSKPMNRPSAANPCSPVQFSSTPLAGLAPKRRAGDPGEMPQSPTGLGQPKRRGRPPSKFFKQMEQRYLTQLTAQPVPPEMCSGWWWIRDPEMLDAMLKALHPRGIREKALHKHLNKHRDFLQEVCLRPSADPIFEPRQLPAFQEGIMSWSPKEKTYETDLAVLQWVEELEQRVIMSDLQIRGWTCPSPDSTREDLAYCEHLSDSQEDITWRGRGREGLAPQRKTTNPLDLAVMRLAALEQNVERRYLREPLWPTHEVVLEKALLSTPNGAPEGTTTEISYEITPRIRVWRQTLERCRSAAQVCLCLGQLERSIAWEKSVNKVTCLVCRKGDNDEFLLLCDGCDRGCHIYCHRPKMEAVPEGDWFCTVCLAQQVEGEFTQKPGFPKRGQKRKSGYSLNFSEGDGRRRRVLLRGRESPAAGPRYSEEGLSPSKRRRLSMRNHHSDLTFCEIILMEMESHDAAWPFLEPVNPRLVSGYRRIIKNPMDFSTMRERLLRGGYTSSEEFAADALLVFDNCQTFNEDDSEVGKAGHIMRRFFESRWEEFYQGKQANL
T6 sequence (Q9UIF8 whole entry): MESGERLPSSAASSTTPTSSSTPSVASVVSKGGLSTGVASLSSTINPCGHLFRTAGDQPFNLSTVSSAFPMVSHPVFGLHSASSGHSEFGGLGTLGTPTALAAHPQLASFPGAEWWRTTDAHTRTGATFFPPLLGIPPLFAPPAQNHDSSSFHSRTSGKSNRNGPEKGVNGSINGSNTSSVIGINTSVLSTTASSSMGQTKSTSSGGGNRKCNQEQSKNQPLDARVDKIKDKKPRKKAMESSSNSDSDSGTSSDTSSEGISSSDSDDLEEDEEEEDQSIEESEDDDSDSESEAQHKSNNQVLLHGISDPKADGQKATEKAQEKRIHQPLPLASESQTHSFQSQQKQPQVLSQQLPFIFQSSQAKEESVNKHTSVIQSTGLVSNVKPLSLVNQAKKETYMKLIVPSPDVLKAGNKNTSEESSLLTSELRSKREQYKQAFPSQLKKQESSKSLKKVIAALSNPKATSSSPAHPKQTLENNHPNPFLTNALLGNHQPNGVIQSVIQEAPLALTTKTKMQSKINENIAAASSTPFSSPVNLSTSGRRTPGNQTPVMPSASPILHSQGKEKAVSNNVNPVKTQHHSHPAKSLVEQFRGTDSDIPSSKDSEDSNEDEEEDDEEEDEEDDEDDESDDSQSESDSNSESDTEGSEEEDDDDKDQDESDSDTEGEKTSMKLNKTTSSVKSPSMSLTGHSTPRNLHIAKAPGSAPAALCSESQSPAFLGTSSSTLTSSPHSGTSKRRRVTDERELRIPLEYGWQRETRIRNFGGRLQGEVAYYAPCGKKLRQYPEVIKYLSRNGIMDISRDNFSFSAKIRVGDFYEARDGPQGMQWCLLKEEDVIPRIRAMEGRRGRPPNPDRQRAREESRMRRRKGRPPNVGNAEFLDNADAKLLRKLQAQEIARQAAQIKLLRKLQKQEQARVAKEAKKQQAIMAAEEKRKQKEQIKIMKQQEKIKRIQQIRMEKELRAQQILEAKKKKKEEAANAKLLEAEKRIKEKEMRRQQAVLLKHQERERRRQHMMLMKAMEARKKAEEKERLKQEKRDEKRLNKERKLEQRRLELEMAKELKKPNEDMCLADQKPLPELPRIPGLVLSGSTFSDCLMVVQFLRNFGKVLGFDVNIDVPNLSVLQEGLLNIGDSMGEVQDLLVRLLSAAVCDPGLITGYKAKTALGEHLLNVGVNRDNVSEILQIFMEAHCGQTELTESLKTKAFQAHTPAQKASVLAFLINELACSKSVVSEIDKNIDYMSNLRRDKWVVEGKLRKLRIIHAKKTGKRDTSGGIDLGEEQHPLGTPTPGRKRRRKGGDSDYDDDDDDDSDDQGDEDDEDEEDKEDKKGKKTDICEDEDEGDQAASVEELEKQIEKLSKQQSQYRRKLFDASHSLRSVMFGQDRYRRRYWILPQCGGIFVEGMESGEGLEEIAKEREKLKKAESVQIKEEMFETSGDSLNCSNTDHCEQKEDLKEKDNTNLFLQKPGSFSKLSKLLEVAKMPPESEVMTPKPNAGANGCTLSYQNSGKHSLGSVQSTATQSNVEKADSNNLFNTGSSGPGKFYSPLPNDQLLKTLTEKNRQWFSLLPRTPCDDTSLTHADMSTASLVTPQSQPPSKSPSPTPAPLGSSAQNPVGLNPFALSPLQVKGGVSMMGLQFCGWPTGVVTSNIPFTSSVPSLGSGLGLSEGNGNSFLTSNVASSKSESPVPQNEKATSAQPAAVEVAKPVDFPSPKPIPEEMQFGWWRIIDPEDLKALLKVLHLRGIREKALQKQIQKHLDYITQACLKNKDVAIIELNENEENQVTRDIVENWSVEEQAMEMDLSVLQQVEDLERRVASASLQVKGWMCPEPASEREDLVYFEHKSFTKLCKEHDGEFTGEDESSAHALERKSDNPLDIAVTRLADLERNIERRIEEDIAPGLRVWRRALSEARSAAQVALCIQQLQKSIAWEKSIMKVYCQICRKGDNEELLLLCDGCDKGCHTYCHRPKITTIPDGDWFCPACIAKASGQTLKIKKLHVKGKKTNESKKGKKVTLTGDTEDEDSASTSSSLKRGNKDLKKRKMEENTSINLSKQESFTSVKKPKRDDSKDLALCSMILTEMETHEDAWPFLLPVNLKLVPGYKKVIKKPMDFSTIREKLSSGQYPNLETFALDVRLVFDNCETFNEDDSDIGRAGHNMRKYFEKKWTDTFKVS

SMILES	Kd [1, 11] [nM]	Kd [2, 12] [nM]	Kd [3, 11] [nM]	Kd [4, 12] [nM]	Percent Control BAZ2A [5] [%]	Percent Control BAZ2B [6] [%]	Percent Control BRD3(2) [7] [%]	Percent Control BRD4(1) [8] [%]	Percent Control BRPF3 [9] [%]	Percent Control PBRM1(2) [10] [%]	Kd [1, 12] [nM]	Kd [2, 11] [nM]	Kd [3, 12] [nM]	Kd [4, 11] [nM]	remaining binding at 1 µM ([5]; read-out: Percent Control BAZ2A) [%]	remaining binding at 1 µM ([6]; read-out: Percent Control BAZ2B) [%]	remaining binding at 1 µM ([7]; read-out: Percent Control BRD3(2)) [%]	remaining binding at 1 µM ([8]; read-out: Percent Control BRD4(1)) [%]	remaining binding at 1 µM ([9]; read-out: Percent Control BRPF3) [%]	remaining binding at 1 µM ([10]; read-out: Percent Control PBRM1(2)) [%]
CC[C@H](C)[C@@H]1NC(=O)[C@H]([C@@H](C)O)NC(=O)[C@H](CCCCN)NC(=O)[C@H](Cc2c[nH]c3ccccc23)NC(=O)CSC[C@@H](C(N)=O)NC(=O)[C@H](CCC(N)=O)NC(=O)[C@H](CCCCNC(C)=O)NC(=O)[C@H]([C@@H](C)O)NC(=O)[C@H](CCCNC(=N)N)NC(=O)[C@H](Cc2c[nH]c3ccccc23)NC(=O)[C@H]([C@@H](C)O)NC(=O)[C@H](CCCCNC(C)=O)NC(=O)CNC(=O)[C@H](CCCCNC(C)=O)NC1=O [3.1B] ({CH2CO}-WKTIK(Ac)GK(Ac)TWRTK(Ac)QC-NH2; thioether N-14)	0.27 ± 0.16	> 10000	0.55 ± 0.33	> 10000	15	100	100	0.2	100	100										
CC[C@H](C)[C@H](NC(=O)[C@H](CCCNC(=N)N)NC(=O)[C@H](CCCCNC(C)=O)NC(=O)[C@H](CCCNC(=N)N)NC(=O)[C@H](CC(C)C)NC(=O)[C@@H]1CSCC(=O)N[C@@H](Cc2c[nH]c3ccccc23)C(=O)N[C@@H](CCCCNC(C)=O)C(=O)NCC(=O)N[C@@H](Cc2ccc(O)cc2)C(=O)N[C@@H](CC(C)C)C(=O)N1)C(=O)N[C@@H](CCC(N)=O)C(=O)N[C@@H](CCCNC(=N)N)C(=O)N[C@H](C(=O)N[C@@H](Cc1ccc(O)cc1)C(=O)N[C@@H](CC(N)=O)C(N)=O)[C@@H](C)O [4.2C] ({CH2CO}-WK(Ac)GYLCLRK(Ac)RIQRTYN-NH2; thioether N-6)											> 10000	110 ± 116	> 10000	36 ± 35	100	99	96	96	92	100
CC[C@H](C)[C@@H]1NC(=O)[C@H](Cc2c[nH]c3ccccc23)NC(=O)[C@H](Cc2c[nH]c3ccccc23)NC(=O)CSC[C@@H](C(N)=O)NC(=O)CNC(=O)[C@H](CCCCNC(C)=O)NC(=O)[C@H](CCCCN)NC(=O)[C@H](C(C)C)NC(=O)[C@H](CCCCNC(C)=O)NC(=O)[C@@H]2CCCN2C(=O)[C@H]([C@@H](C)CC)NC1=O [3.1C] ({CH2CO}-WWIIPK(Ac)VKK(Ac)GC-NH2; thioether N-11)	0.19 ± 0.04		0.35 ± 0.1		99	100	13	0	95	100		13 ± 12		340 ± 350						
